US20120122860A1, “SOLID FORMS OF SULFONAMIDES AND AMINO ACIDS” (Plexxikon, Inc., priority 2009, published 2012)

Legend:
TrkA = TrkA (Homo sapiens, UniProt P04629); assay: Kinase activity assay, TrkA
C-Raf = C-Raf (Homo sapiens, UniProt P04049); assay: Kinase activity assay, C-Raf
Kdr = Kdr (Homo sapiens, UniProt P35968); assay: Kinase activity assay, Kdr
Src = Src (Homo sapiens, UniProt P12931); assay: Kinase activity assay, Src
B-Raf = B-Raf (Homo sapiens, UniProt P15056); assay: Kinase activity assay, B-Raf; type: biochemical; conditions: read-out: activity toward kinase B-Raf, IC50
Chain of B-Raf (P15056 whole entry): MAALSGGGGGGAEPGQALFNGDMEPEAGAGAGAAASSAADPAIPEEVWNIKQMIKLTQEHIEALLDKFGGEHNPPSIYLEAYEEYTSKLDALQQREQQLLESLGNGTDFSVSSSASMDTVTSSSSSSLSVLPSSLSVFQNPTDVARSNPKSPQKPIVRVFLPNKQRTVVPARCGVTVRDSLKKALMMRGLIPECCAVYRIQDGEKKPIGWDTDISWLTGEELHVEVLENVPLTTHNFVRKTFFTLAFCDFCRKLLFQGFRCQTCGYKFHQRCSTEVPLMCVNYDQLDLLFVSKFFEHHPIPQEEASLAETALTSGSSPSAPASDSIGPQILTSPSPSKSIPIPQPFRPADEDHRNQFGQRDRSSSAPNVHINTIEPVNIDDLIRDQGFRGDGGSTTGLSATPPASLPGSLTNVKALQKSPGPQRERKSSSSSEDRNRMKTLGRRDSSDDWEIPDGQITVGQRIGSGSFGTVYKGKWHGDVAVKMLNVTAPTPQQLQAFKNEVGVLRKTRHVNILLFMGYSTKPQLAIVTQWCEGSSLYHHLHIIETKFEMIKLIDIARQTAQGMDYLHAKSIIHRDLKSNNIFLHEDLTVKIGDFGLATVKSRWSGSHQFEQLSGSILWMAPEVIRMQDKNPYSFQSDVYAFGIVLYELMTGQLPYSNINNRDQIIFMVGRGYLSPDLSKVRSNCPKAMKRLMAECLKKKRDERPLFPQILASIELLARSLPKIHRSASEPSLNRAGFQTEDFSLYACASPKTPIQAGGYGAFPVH

B-Raf V600E = B-Raf V600E (Homo sapiens, UniProt P15056, V600E); assay: Kinase activity assay, B-Raf V600E; type: biochemical; conditions: read-out: activity toward kinase B-Raf V600E, IC50
Chain of B-Raf V600E (P15056 whole entry V600E): as the sequence (P15056 whole entry) above, with V600E counted along it

MAP4K4 = MAP4K4 (Homo sapiens, UniProt O95819); assay: Kinase activity assay, MAP4K4
Chain of MAP4K4 (O95819 whole entry): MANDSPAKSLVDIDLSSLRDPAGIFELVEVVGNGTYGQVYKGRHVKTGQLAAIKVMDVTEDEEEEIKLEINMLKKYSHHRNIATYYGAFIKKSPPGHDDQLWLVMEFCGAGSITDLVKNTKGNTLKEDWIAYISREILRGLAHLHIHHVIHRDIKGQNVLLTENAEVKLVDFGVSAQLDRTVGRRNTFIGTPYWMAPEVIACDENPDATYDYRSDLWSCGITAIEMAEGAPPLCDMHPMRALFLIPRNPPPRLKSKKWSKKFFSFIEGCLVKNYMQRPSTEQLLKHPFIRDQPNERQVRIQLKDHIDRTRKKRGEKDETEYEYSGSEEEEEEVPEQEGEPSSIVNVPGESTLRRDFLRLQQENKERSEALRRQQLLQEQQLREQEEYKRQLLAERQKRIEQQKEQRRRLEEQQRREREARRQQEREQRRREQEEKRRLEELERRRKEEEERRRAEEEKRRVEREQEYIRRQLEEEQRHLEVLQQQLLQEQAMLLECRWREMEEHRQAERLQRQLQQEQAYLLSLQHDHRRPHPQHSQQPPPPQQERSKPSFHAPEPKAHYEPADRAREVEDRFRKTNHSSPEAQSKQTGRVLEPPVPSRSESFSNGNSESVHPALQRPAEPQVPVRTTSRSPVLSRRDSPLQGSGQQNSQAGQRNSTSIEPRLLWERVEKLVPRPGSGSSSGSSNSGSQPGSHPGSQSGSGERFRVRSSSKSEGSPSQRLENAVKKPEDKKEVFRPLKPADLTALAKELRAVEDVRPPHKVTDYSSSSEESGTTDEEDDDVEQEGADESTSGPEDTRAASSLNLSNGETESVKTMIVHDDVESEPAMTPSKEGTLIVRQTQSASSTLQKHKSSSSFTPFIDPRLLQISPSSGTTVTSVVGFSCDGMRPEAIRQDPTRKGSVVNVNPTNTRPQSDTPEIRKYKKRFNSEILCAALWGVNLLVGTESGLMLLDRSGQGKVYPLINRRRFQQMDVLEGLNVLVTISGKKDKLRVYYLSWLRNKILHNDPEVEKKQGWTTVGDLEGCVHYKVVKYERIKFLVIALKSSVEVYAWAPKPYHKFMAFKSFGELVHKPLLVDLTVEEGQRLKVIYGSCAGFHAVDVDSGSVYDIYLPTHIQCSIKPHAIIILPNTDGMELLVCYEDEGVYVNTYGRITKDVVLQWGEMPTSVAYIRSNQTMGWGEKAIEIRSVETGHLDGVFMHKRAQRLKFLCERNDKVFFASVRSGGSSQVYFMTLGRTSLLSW

A-Raf = biological target: T1, A-Raf (Homo sapiens, UniProt P10398); assay: Kinase activity assay, A-Raf
T1 sequence (P10398 1-606): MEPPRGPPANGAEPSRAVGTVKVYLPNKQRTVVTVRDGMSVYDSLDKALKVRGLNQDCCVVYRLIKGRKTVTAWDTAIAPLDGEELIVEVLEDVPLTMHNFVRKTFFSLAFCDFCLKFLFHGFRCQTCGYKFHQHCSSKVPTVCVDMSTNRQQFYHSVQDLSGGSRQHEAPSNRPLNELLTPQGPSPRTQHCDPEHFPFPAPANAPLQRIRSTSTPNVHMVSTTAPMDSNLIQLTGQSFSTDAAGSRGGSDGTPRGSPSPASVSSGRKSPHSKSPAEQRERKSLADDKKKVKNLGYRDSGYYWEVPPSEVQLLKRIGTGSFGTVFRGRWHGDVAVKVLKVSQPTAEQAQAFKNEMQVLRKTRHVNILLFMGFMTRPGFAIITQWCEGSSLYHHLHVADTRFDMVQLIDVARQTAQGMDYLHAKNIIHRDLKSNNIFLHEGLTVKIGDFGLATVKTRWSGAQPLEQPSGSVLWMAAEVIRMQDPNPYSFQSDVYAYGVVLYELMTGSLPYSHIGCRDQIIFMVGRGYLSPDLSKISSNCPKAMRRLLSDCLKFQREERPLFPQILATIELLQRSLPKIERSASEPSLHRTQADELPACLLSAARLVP

PI3Kα = PI3Kα (Homo sapiens, UniProt P42336); assay: Kinase activity assay, PI3Kα
Flt1 = Flt1 (Homo sapiens, UniProt P17948); assay: Kinase activity assay, Flt1
Fms = Fms (Homo sapiens, UniProt P07333); assay: Kinase activity assay, Fms
Kit = Kit (Homo sapiens, UniProt P10721); assay: Kinase activity assay, Kit
Chain of Kit (P10721 26-976): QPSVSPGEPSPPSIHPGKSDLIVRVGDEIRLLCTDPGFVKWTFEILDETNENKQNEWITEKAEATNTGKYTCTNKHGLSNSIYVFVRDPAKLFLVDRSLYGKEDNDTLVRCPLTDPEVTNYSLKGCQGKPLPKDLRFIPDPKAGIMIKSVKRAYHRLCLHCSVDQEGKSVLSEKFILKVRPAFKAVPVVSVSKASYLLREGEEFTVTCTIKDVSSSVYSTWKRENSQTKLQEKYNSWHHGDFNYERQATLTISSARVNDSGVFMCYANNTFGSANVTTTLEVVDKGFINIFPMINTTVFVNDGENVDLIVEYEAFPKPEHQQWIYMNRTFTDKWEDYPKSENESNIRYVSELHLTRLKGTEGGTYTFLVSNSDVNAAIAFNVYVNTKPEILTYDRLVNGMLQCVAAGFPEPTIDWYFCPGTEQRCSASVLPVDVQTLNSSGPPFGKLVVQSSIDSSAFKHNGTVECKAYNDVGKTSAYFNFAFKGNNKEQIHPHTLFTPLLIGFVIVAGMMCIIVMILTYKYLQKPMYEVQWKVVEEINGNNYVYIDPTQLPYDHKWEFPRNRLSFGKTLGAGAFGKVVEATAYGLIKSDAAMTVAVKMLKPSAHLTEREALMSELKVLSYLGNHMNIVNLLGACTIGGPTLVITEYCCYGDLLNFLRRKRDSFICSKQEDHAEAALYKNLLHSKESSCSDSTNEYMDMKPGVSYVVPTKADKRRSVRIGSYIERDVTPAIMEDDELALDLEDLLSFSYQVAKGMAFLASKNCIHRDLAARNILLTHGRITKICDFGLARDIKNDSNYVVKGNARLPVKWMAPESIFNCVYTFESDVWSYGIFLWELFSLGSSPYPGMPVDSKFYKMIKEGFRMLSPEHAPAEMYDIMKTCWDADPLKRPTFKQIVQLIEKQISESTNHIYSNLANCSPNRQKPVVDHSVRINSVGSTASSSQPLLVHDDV

TEC = biological target: T2, TEC (Homo sapiens, UniProt P42680); assay: Kinase activity assay, TEC
T2 sequence (P42680 1-631): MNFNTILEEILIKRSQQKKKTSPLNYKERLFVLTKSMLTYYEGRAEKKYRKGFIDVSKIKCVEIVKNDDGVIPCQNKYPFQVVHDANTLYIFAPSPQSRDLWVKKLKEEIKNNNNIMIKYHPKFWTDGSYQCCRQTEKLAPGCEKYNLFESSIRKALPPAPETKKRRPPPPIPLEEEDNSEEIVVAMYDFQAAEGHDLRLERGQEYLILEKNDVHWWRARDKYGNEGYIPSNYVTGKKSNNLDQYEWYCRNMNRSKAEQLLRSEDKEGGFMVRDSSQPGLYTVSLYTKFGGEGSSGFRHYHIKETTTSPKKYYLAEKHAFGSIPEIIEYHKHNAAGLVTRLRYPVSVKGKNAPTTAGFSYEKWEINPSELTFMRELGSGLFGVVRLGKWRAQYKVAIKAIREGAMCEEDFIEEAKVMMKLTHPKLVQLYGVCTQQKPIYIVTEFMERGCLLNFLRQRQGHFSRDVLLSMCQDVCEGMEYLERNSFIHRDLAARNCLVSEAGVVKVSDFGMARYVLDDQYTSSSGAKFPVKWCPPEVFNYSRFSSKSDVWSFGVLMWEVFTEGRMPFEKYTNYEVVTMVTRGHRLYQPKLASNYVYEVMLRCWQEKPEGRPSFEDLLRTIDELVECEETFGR

Btk = Btk (Homo sapiens, UniProt Q06187); assay: Kinase activity assay, Btk
Chain of Btk (Q06187 whole entry): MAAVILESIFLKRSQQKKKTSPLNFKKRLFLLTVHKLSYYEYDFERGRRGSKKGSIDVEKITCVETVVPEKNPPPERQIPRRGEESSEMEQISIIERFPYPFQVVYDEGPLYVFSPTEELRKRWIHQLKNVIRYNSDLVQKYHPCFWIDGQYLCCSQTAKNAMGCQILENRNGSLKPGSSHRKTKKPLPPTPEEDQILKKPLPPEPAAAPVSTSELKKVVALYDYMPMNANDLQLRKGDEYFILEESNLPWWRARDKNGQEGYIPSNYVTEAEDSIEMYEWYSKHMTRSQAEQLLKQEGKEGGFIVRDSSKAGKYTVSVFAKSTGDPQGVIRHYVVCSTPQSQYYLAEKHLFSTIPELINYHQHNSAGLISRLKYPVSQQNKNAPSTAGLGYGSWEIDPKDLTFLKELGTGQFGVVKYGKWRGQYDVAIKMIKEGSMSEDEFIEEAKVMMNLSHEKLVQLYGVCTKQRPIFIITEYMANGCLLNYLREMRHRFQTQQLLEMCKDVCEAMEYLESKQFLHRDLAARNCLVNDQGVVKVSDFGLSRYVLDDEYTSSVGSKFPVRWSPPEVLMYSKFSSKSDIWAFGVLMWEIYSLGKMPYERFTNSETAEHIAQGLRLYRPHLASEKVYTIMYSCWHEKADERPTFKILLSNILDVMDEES

Measured: IC50

Chain of Src (P12931 whole entry): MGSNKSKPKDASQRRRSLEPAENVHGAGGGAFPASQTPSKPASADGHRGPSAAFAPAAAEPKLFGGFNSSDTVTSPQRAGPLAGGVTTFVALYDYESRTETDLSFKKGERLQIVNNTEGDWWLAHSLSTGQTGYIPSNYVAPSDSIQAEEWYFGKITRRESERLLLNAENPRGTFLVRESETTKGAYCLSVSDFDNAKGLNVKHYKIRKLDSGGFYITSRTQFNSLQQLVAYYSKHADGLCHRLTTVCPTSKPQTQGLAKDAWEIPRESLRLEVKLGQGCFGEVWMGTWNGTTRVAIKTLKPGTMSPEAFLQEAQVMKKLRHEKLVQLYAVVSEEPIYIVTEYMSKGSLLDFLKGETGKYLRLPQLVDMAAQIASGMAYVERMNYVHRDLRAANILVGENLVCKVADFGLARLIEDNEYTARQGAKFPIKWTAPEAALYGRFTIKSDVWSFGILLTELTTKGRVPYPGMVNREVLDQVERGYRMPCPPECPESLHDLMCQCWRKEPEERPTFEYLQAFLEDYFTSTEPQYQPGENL
Chain of C-Raf (P04049 whole entry): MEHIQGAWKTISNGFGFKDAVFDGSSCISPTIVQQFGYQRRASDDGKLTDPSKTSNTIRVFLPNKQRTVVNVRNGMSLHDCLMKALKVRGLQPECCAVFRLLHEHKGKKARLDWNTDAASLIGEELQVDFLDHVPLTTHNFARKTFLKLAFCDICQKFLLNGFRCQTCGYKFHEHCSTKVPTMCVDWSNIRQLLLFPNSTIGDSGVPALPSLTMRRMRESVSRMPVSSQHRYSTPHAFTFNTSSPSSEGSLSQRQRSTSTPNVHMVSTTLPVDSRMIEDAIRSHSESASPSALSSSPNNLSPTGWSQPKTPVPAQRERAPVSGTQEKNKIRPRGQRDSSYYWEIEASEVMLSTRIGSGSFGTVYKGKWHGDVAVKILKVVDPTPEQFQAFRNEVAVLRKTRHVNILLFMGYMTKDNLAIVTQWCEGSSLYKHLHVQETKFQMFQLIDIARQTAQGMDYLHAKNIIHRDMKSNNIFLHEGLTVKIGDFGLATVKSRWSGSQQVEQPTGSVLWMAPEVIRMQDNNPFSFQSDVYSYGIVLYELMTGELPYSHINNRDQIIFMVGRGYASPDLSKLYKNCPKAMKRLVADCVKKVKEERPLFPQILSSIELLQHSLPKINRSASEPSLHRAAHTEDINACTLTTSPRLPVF

COc1ccnc2[nH]cc(C(=O)c3cccc(NS(=O)(=O)c4ccc(C(F)(F)F)cc4)c3F)c12 [P-2060, N-[2-Fluoro-3-(4-methoxy-1H-pyrrolo[2,3-b]pyridine-3-carbonyl)-phenyl]-4-trifluoromethyl-benzenesulfonamide]
≤ 10 µM: TrkA | C-Raf | Kdr | Src | B-Raf | B-Raf V600E

COc1cnc2[nH]cc(C(=O)c3c(F)ccc(NS(=O)(=O)c4ncn[nH]4)c3F)c2c1 [P-2061, 2H-[1,2,4]Triazole-3-sulfonic acid [2,4-difluoro-3-(5-methoxy-1H-pyrrolo[2,3-b]pyridine-3-carbonyl)-phenyl]-amide]
≤ 10 µM: MAP4K4 | TrkA | C-Raf | Kdr | Src | A-Raf | B-Raf V600E

CCCS(=O)(=O)Nc1ccc(F)c(C(=O)c2c[nH]c3ncc(-c4ccc(NC(C)=O)nc4)cc23)c1F [P-2193, N-(5-{3-[2,6-Difluoro-3-(propane-1-sulfonylamino)-benzoyl]-1H-pyrrolo[2,3-b]pyridin-5-yl}-pyridin-2-yl)-acetamide]
not listed: TrkA | A-Raf | TEC | Btk
≤ 10 µM: all other assays above

CCCS(=O)(=O)Nc1ccc(F)c(C(=O)c2c[nH]c3ncc(-c4ccc(N)nc4)cc23)c1F [P-2214, Propane-1-sulfonic acid {3-[5-(6-amino-pyridin-3-yl)-1H-pyrrolo[2,3-b]pyridine-3-carbonyl]-2,4-difluoro-phenyl}-amide]
not listed: TrkA | A-Raf
≤ 10 µM: all other assays above

CCCS(=O)(=O)Nc1ccc(F)c(C(=O)c2c[nH]c3ncc(C#CCOC)cc23)c1F [P-2239, Propane-1-sulfonic acid {2,4-difluoro-3-[5-(3-methoxy-prop-1-ynyl)-1H-pyrrolo[2,3-b]pyridine-3-carbonyl]-phenyl}-amide]
not listed: PI3Kα | Flt1 | TEC | Btk
≤ 10 µM: all other assays above

CCCS(=O)(=O)Nc1ccc(F)c(C(=O)c2c[nH]c3ncc(CCCOC)cc23)c1F [P-2240, propane-1-sulfonic acid {2,4-difluoro-3-[5-(3-methoxy-propyl)-1H-pyrrolo[2,3-b]pyridine-3-carbonyl]-phenyl}-amide]
not listed: PI3Kα | Flt1 | Fms | TEC | Btk
≤ 10 µM: all other assays above

CCCCS(=O)(=O)Nc1ccc(F)c(C(=O)c2c[nH]c3ncc(-c4ccc(F)cc4)cc23)c1F [P-2301, Butane-1-sulfonic acid {2,4-difluoro-3-[5-(4-fluoro-phenyl)-1H-pyrrolo[2,3-b]pyridine-3-carbonyl]-phenyl}-amide]
≤ 10 µM: MAP4K4 | TrkA | Kdr | Src | B-Raf | Fms | Kit | B-Raf V600E

O=C(c1c(F)ccc(NS(=O)(=O)C(F)(F)F)c1F)c1c[nH]c2ncc(-c3ccc(F)cc3)cc12 [P-2344, N-{2,4-Difluoro-3-[5-(4-fluoro-phenyl)-1H-pyrrolo[2,3-b]pyridine-3-carbonyl]-phenyl}-C,C,C-trifluoro-methanesulfonamide]
≤ 10 µM: TrkA | Kdr | Src | B-Raf | Fms | Kit | B-Raf V600E

CCCCS(=O)(=O)Nc1ccc(F)c(C(=O)c2c[nH]c3ncc(-c4cnn(C)c4)cc23)c1 [P-2432, Butane-1-sulfonic acid {4-fluoro-3-[5-(1-methyl-1H-pyrazol-4-yl)-1H-pyrrolo[2,3-b]pyridine-3-carbonyl]-phenyl}-amide]
not listed: TrkA | A-Raf | PI3Kα
≤ 10 µM: all other assays above

Cn1cc(-c2cnc3[nH]cc(C(=O)c4cc(NS(=O)(=O)C5CCCCC5)ccc4F)c3c2)cn1 [P-2434, Cyclohexanesulfonic acid {4-fluoro-3-[5-(1-methyl-1H-pyrazol-4-yl)-1H-pyrrolo[2,3-b]pyridine-3-carbonyl]-phenyl}-amide]
not listed: TrkA | A-Raf | PI3Kα
≤ 10 µM: all other assays above

Cn1cc(-c2cnc3[nH]cc(C(=O)c4cccc(NS(=O)(=O)C5CCCCC5)c4)c3c2)cn1 [P-2457, Cyclohexanesulfonic acid {3-[5-(1-methyl-1H-pyrazol-4-yl)-1H-pyrrolo[2,3-b]pyridine-3-carbonyl]-phenyl}-amide]
not listed: TrkA | C-Raf | B-Raf | A-Raf | PI3Kα
≤ 10 µM: all other assays above
